According to patent US20210045385A1, “PYRIDAZINONE-SUBSTITUTED KETOXIMES AS HERBICIDES” (FMC Corporation, priority 2018, published 2021):

Assays:
Assay type in all cases: in vivo
[1] = tested on: barnyardgrass (Echinochloa crus-galli); experiment: Test C preemergence, visual plant response rating
Procedure, shortened: (§1)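 Visual injury on a 0 (no effect) to 100 (complete control) scale versus untreated controls, scored approximately 10 d after treatment under greenhouse conditions. Treatments used surfactant-containing non-phytotoxic solvent formulations, sprayed onto loam–sand soil preemergence or onto one- to two-leaf plants 2–10 cm tall postemergence.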

[2] = tested on: pigweed (Amaranthus retroflexus); experiment: Test C preemergence, visual plant response rating
Procedure, shortened: as §1

[3] = tested on: Italian ryegrass (Lolium mutiflorum); experiment: Test C preemergence, visual plant response rating
Procedure, shortened: as §1

[4] = tested on: foxtail, giant (giant foxtail, Setaria faberi); experiment: Test C preemergence, visual plant response rating
Procedure, shortened: as §1

[5] = tested on: kochia (Bassia scoparia); experiment: Test C preemergence, visual plant response rating
Procedure, shortened: as §1

[6] = tested on: barnyardgrass (Echinochloa crus-galli); experiment: Test C postemergence, visual plant response rating
Procedure, shortened: as §1

[7] = tested on: pigweed (Amaranthus retroflexus); experiment: Test C postemergence, visual plant response rating
Procedure, shortened: as §1

[8] = tested on: blackgrass (Alopecurus myosuroides); experiment: Test C postemergence, visual plant response rating
Procedure, shortened: as §1

[9] = tested on: Italian ryegrass (Lolium mutiflorum); experiment: Test C postemergence, visual plant response rating
Procedure, shortened: as §1

[10] = tested on: foxtail, giant (giant foxtail, Setaria faberi); experiment: Test C postemergence, visual plant response rating
Procedure, shortened: as §1

[11] = tested on: wheat (Triticum aestivum); experiment: Test C postemergence, visual plant response rating
Procedure, shortened: as §1

[12] = tested on: galium (catchweed bedstraw, Galium aparine); experiment: Test C postemergence, visual plant response rating
Procedure, shortened: as §1

[13] = tested on: ragweed (common ragweed, Ambrosia artemisiifolia); experiment: Test C postemergence, visual plant response rating
Procedure, shortened: as §1

[14] = tested on: corn (Zea mays); experiment: Test C postemergence, visual plant response rating
Procedure, shortened: as §1

[15] = tested on: kochia (Bassia scoparia); experiment: Test C postemergence, visual plant response rating
Procedure, shortened: as §1

[16] = tested on: barnyardgrass (Echinochloa crus-galli); experiment: Test D flooded paddy test, visual plant response rating; conditions: 250 g ai/ha, scale 0 to 100 (0 no effect, 100 complete control), 13 to 15 d
Procedure, shortened: (§2)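 Rating is visual, on a 0 (no effect) to 100 (complete control) scale versus controls, taken 13 to 15 d after treatment in a greenhouse. Treatment went into paddy water kept 3 cm above the soil surface, with plants at the 2-leaf stage.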

[17] = tested on: duck salad (Heteranthera limosa); experiment: as above; conditions: 250 g ai/ha, scale 0 to 100 (0 no effect, 100 complete control), 13 to 15 d
Procedure, shortened: as §2

[18] = tested on: rice (Oryza sativa); experiment: as above; conditions: 250 g ai/ha, scale 0 to 100 (0 no effect, 100 complete control), 13 to 15 d
Procedure, shortened: as §2

[19] = tested on: sedge umbrella (small-flower umbrella sedge, Cyperus difformis); experiment: as above; conditions: 250 g ai/ha, scale 0 to 100 (0 no effect, 100 complete control), 13 to 15 d
Procedure, shortened: as §2

[20] = Test C, 31 g ai/ha, 0 is no effect, 100 is complete control
[21] = Test C, postemergence, 125 g ai/ha
[22] = Test C, 125 g ai/ha, 0 is no effect, 100 is complete control

CCO/N=C(\c1cc(Cl)cc(Cl)c1Cl)c1c(O)c(C)nn(C)c1=O [Compound 186]
Barnyardgrass plant response rating (0 to 100 scale) ([1]; 125 g ai/ha): 90
Barnyardgrass plant response rating (0 to 100 scale) [1, 20]: 40
Pigweed plant response rating (0 to 100 scale) ([2]; 125 g ai/ha): 100
Pigweed plant response rating (0 to 100 scale) [2, 20]: 50
Ryegrass, Italian plant response rating (0 to 100 scale) ([3]; 125 g ai/ha): 100
Ryegrass, Italian plant response rating (0 to 100 scale) [3, 20]: 40
Foxtail, Giant plant response rating (0 to 100 scale) ([4]; 125 g ai/ha): 100
Foxtail, Giant plant response rating (0 to 100 scale) [4, 20]: 100
Kochia plant response rating (0 to 100 scale) ([5]; 125 g ai/ha): 0
Kochia plant response rating (0 to 100 scale) [5, 20]: 0
Barnyardgrass plant response rating (0 to 100 scale) ([6]; Postemergence, 31 g ai/ha): 30
Barnyardgrass plant response rating (0 to 100 scale) [6, 21]: 70
Pigweed plant response rating (0 to 100 scale) ([7]; Postemergence, 31 g ai/ha): 20
Pigweed plant response rating (0 to 100 scale) [7, 21]: 90
Blackgrass plant response rating (0 to 100 scale) ([8]; Postemergence, 31 g ai/ha): 10
Blackgrass plant response rating (0 to 100 scale) [8, 21]: 20
Ryegrass, Italian plant response rating (0 to 100 scale) ([9]; Postemergence, 31 g ai/ha): 80
Ryegrass, Italian plant response rating (0 to 100 scale) [9, 21]: 100
Foxtail, Giant plant response rating (0 to 100 scale) ([10]; Postemergence, 31 g ai/ha): 60
Foxtail, Giant plant response rating (0 to 100 scale) [10, 21]: 90
Wheat plant response rating (0 to 100 scale) ([11]; Postemergence, 31 g ai/ha): 20
Wheat plant response rating (0 to 100 scale) [11, 21]: 70
Galium plant response rating (0 to 100 scale) ([12]; Postemergence, 31 g ai/ha): 90
Galium plant response rating (0 to 100 scale) [12, 21]: 100
Ragweed plant response rating (0 to 100 scale) ([13]; Postemergence, 31 g ai/ha): 50
Ragweed plant response rating (0 to 100 scale) [13, 21]: 90
Corn plant response rating (0 to 100 scale) ([14]; Postemergence, 31 g ai/ha): 0
Corn plant response rating (0 to 100 scale) [14, 21]: 20
Kochia plant response rating (0 to 100 scale) ([15]; Postemergence, 31 g ai/ha): 50
Kochia plant response rating (0 to 100 scale) [15, 21]: 50
Plant response rating, Barnyardgrass (Flood) [16]: 0
Plant response rating, Ducksalad (Flood) [17]: 0
Plant response rating, Rice (Flood) [18]: 0
Plant response rating, Sedge, Umbrella (Flood) [19]: 0

CC(C)O/N=C(/c1c(O)c(Cl)nn(C)c1=O)c1cc(Br)cc2ccccc12 [Compound 232]
Barnyardgrass plant response rating (0 to 100 scale) [1, 20]: 60
Barnyardgrass plant response rating (0 to 100 scale) [1, 22]: 100
Pigweed plant response rating (0 to 100 scale) [2, 20]: 70
Pigweed plant response rating (0 to 100 scale) [2, 22]: 90
Ryegrass, Italian plant response rating (0 to 100 scale) [3, 20]: 0
Ryegrass, Italian plant response rating (0 to 100 scale) [3, 22]: 0
Foxtail, Giant plant response rating (0 to 100 scale) [4, 20]: 70
Foxtail, Giant plant response rating (0 to 100 scale) [4, 22]: 100
Kochia plant response rating (0 to 100 scale) [5, 20]: 0
Kochia plant response rating (0 to 100 scale) [5, 22]: 10
Barnyardgrass plant response rating (0 to 100 scale) ([6]; Postemergence, 31 g ai/ha): 40
Barnyardgrass plant response rating (0 to 100 scale) [6, 21]: 90
Pigweed plant response rating (0 to 100 scale) ([7]; Postemergence, 31 g ai/ha): 70
Pigweed plant response rating (0 to 100 scale) [7, 21]: 90
Blackgrass plant response rating (0 to 100 scale) ([8]; Postemergence, 31 g ai/ha): 20
Blackgrass plant response rating (0 to 100 scale) [8, 21]: 50
Ryegrass, Italian plant response rating (0 to 100 scale) ([9]; Postemergence, 31 g ai/ha): 0
Ryegrass, Italian plant response rating (0 to 100 scale) [9, 21]: 0
Foxtail, Giant plant response rating (0 to 100 scale) ([10]; Postemergence, 31 g ai/ha): 60
Foxtail, Giant plant response rating (0 to 100 scale) [10, 21]: 80
Wheat plant response rating (0 to 100 scale) ([11]; Postemergence, 31 g ai/ha): 0
Wheat plant response rating (0 to 100 scale) [11, 21]: 0
Galium plant response rating (0 to 100 scale) ([12]; Postemergence, 31 g ai/ha): 80
Galium plant response rating (0 to 100 scale) [12, 21]: 100
Ragweed plant response rating (0 to 100 scale) ([13]; Postemergence, 31 g ai/ha): 100
Ragweed plant response rating (0 to 100 scale) [13, 21]: 100
Corn plant response rating (0 to 100 scale) ([14]; Postemergence, 31 g ai/ha): 0
Corn plant response rating (0 to 100 scale) [14, 21]: 10
Kochia plant response rating (0 to 100 scale) ([15]; Postemergence, 31 g ai/ha): 20
Kochia plant response rating (0 to 100 scale) [15, 21]: 50
Plant response rating, Barnyardgrass (Flood) [16]: 30
Plant response rating, Ducksalad (Flood) [17]: 30
Plant response rating, Rice (Flood) [18]: 0
Plant response rating, Sedge, Umbrella (Flood) [19]: 95

CON=C(c1cc(Cl)cc(Cl)c1)c1c(O)c(C)nn(C)c1=O [Compound 188]
Barnyardgrass plant response rating (0 to 100 scale) ([1]; 125 g ai/ha): 100
Barnyardgrass plant response rating (0 to 100 scale) [1, 20]: 30
Pigweed plant response rating (0 to 100 scale) ([2]; 125 g ai/ha): 90
Pigweed plant response rating (0 to 100 scale) [2, 20]: 70
Ryegrass, Italian plant response rating (0 to 100 scale) ([3]; 125 g ai/ha): 100
Ryegrass, Italian plant response rating (0 to 100 scale) [3, 20]: 80
Foxtail, Giant plant response rating (0 to 100 scale) ([4]; 125 g ai/ha): 100
Foxtail, Giant plant response rating (0 to 100 scale) [4, 20]: 90
Kochia plant response rating (0 to 100 scale) ([5]; 125 g ai/ha): 100
Kochia plant response rating (0 to 100 scale) [5, 20]: 10
Barnyardgrass plant response rating (0 to 100 scale) ([6]; Postemergence, 31 g ai/ha): 30
Barnyardgrass plant response rating (0 to 100 scale) [6, 21]: 60
Pigweed plant response rating (0 to 100 scale) ([7]; Postemergence, 31 g ai/ha): 80
Pigweed plant response rating (0 to 100 scale) [7, 21]: 90
Blackgrass plant response rating (0 to 100 scale) ([8]; Postemergence, 31 g ai/ha): 40
Blackgrass plant response rating (0 to 100 scale) [8, 21]: 30
Ryegrass, Italian plant response rating (0 to 100 scale) ([9]; Postemergence, 31 g ai/ha): 80
Ryegrass, Italian plant response rating (0 to 100 scale) [9, 21]: 100
Foxtail, Giant plant response rating (0 to 100 scale) ([10]; Postemergence, 31 g ai/ha): 40
Foxtail, Giant plant response rating (0 to 100 scale) [10, 21]: 90
Wheat plant response rating (0 to 100 scale) ([11]; Postemergence, 31 g ai/ha): 10
Wheat plant response rating (0 to 100 scale) [11, 21]: 50
Galium plant response rating (0 to 100 scale) ([12]; Postemergence, 31 g ai/ha): 100
Galium plant response rating (0 to 100 scale) [12, 21]: 100
Ragweed plant response rating (0 to 100 scale) ([13]; Postemergence, 31 g ai/ha): 60
Ragweed plant response rating (0 to 100 scale) [13, 21]: 100
Corn plant response rating (0 to 100 scale) ([14]; Postemergence, 31 g ai/ha): 0
Corn plant response rating (0 to 100 scale) [14, 21]: 30
Kochia plant response rating (0 to 100 scale) ([15]; Postemergence, 31 g ai/ha): 80
Kochia plant response rating (0 to 100 scale) [15, 21]: 100
Plant response rating, Barnyardgrass (Flood) [16]: 15
Plant response rating, Ducksalad (Flood) [17]: 70
Plant response rating, Rice (Flood) [18]: 0
Plant response rating, Sedge, Umbrella (Flood) [19]: 85

CO/N=C(\c1c(OC(C)=O)c(Cl)nn(C)c1=O)c1cc(Br)cc2ccccc12 [Compound 231]
Barnyardgrass plant response rating (0 to 100 scale) [1, 20]: 60
Barnyardgrass plant response rating (0 to 100 scale) [1, 22]: 90
Pigweed plant response rating (0 to 100 scale) [2, 20]: 40
Pigweed plant response rating (0 to 100 scale) [2, 22]: 50
Ryegrass, Italian plant response rating (0 to 100 scale) [3, 22]: 0
Foxtail, Giant plant response rating (0 to 100 scale) [4, 20]: 30
Foxtail, Giant plant response rating (0 to 100 scale) [4, 22]: 90
Kochia plant response rating (0 to 100 scale) [5, 22]: 0
Barnyardgrass plant response rating (0 to 100 scale) ([6]; Postemergence, 31 g ai/ha): 30
Barnyardgrass plant response rating (0 to 100 scale) [6, 21]: 70
Pigweed plant response rating (0 to 100 scale) ([7]; Postemergence, 31 g ai/ha): 20
Pigweed plant response rating (0 to 100 scale) [7, 21]: 60
Blackgrass plant response rating (0 to 100 scale) ([8]; Postemergence, 31 g ai/ha): 10
Blackgrass plant response rating (0 to 100 scale) [8, 21]: 20
Ryegrass, Italian plant response rating (0 to 100 scale) ([9]; Postemergence, 31 g ai/ha): 0
Ryegrass, Italian plant response rating (0 to 100 scale) [9, 21]: 10
Foxtail, Giant plant response rating (0 to 100 scale) ([10]; Postemergence, 31 g ai/ha): 30
Foxtail, Giant plant response rating (0 to 100 scale) [10, 21]: 70
Wheat plant response rating (0 to 100 scale) ([11]; Postemergence, 31 g ai/ha): 0
Wheat plant response rating (0 to 100 scale) [11, 21]: 0
Galium plant response rating (0 to 100 scale) ([12]; Postemergence, 31 g ai/ha): 70
Galium plant response rating (0 to 100 scale) [12, 21]: 100
Ragweed plant response rating (0 to 100 scale) ([13]; Postemergence, 31 g ai/ha): 100
Ragweed plant response rating (0 to 100 scale) [13, 21]: 100
Corn plant response rating (0 to 100 scale) ([14]; Postemergence, 31 g ai/ha): 0
Corn plant response rating (0 to 100 scale) [14, 21]: 20
Kochia plant response rating (0 to 100 scale) ([15]; Postemergence, 31 g ai/ha): 10
Kochia plant response rating (0 to 100 scale) [15, 21]: 20
Plant response rating, Barnyardgrass (Flood) [16]: 15
Plant response rating, Ducksalad (Flood) [17]: 75
Plant response rating, Rice (Flood) [18]: 0
Plant response rating, Sedge, Umbrella (Flood) [19]: 30
